Experimental data from paper PMC6155021, “Ancient and modern anticonvulsants act synergistically in a KCNQ potassium channel binding pocket” (Nature Communications, 2018).

Tests used:
KCNQ2/3 channels [1] = target: T1, KCNQ2/3 channels (Homo sapiens, UniProt O43525+O43526); experiment: Two-electrode voltage-clamp of KCNQ2/3 channels expressed in Xenopus laevis oocytes; type: cell-based
Description: (§1) cRNA transcripts encoding human KCNA1, KCNQ1, KCNQ2, KCNQ3, KCNQ4, or KCNQ5 were generated by in vitro transcription using the T7 polymerase message machine kit (Thermo Fisher Scientific), after vector linearization, from cDNA sub-cloned into plasmids incorporating X. laevis β-globin 5′ and 3′ UTRs flanking the coding region to enhance translation and cRNA stability. cRNA was quantified by spectrophotometry. Mutant cDNAs were generated by site-directed mutagenesis using a QuikChange kit according to manufacturer’s protocol (Stratagene, San Diego, CA) and corresponding cRNAs prepared as above. Defolliculated stage V and VI X. laevis oocytes (Ecocyte Bioscience, Austin, TX) were injected with Kv channel α subunit cRNAs (10 ng total per oocyte). Oocytes were incubated at 16 °C in Barth’s saline solution (Ecocyte) containing penicillin and streptomycin, with daily washing, for 3–5 days prior to two-electrode voltage-clamp (TEVC) recording.
(§2) Oocytes were placed in a small-volume oocyte bath (Warner) and viewed with a dissection microscope. Chemicals were sourced from Sigma. Bath solution was (in mM): 96 NaCl, 4 KCl, 1 MgCl2, 1 CaCl2, 10 HEPES (pH 7.6). […] MTX (DMSO), sorbic acid (ethanol), and glutaconic acid (molecular grade H2O) were stored at −20 °C as 1 M stocks. Oleamide was stored as a 1 mM stock in ethanol at 4 °C. Palmitic acid was conjugated with bovine serum albumin as a 1 mM stock and stored at −20 °C. All compounds were diluted to working concentrations each experimental day. All compounds were introduced to the recording bath via gravity perfusion at a constant flow of 1 ml/min for 3 min prior to recording. Pipettes were of 1–2 MΩ resistance when filled with 3 M KCl. Currents were recorded in response to pulses between −80 and +40 mV at 20 mV intervals, or a single pulse to +40 mV, from a holding potential of −80 mV, to yield current–voltage relationships, current magnitude, and for quantifying activation rate. TEVC data analysis was performed with Clampfit10.2 (Molecular Devices) and Graphpad Prism software (GraphPad, San Diego, CA, USA); values are stated as mean ± SEM. Normalized tail currents were plotted versus prepulse voltage and fitted with a single Boltzmann function:1 g=A1-A2/1+expV12-Vy+A2, where g is the normalized tail conductance, A1 is the initial value at −∞, A2 is the final value at +∞, V1/2 is the half-maximal voltage of activation, and Vs the slope factor. Activation and deactivation kinetics were fitted with single-exponential functions.

W236L-Q2/Q3 channels = W236L-Q2/Q3 channels (Homo sapiens, UniProt O43525+O43526, W236L); experiment: Two-electrode voltage-clamp of W236L-Q2/Q3 mutant channels in Xenopus oocytes; type: cell-based; settings: for Non-normalized tail current V0.5 / Normalized tail current V0.5 / Slope: W236L-Q2/Q3
Chain of W236L-Q2/Q3 channels (O43525 whole entry): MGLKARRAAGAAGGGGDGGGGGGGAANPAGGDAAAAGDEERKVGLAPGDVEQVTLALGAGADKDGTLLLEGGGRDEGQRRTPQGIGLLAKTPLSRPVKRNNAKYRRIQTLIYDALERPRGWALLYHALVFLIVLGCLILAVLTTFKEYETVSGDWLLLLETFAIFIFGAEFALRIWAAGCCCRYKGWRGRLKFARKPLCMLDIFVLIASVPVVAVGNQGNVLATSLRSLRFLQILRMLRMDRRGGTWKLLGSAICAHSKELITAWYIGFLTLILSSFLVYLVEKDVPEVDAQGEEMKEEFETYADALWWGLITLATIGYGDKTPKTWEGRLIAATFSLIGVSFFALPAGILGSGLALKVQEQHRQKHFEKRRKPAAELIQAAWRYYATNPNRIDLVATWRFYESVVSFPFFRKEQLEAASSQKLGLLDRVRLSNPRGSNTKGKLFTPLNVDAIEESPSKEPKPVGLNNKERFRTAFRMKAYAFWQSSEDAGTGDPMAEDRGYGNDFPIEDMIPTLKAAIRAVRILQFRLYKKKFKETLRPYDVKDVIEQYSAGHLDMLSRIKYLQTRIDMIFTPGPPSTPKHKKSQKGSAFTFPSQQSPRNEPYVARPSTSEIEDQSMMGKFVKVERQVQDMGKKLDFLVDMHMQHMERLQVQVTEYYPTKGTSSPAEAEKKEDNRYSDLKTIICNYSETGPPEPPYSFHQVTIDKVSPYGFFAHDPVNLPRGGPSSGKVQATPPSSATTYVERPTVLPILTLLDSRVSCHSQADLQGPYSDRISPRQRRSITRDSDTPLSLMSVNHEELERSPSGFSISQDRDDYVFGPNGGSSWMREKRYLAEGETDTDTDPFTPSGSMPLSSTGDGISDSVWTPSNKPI
Chain of W236L-Q2/Q3 channels (O43526 whole entry W236L): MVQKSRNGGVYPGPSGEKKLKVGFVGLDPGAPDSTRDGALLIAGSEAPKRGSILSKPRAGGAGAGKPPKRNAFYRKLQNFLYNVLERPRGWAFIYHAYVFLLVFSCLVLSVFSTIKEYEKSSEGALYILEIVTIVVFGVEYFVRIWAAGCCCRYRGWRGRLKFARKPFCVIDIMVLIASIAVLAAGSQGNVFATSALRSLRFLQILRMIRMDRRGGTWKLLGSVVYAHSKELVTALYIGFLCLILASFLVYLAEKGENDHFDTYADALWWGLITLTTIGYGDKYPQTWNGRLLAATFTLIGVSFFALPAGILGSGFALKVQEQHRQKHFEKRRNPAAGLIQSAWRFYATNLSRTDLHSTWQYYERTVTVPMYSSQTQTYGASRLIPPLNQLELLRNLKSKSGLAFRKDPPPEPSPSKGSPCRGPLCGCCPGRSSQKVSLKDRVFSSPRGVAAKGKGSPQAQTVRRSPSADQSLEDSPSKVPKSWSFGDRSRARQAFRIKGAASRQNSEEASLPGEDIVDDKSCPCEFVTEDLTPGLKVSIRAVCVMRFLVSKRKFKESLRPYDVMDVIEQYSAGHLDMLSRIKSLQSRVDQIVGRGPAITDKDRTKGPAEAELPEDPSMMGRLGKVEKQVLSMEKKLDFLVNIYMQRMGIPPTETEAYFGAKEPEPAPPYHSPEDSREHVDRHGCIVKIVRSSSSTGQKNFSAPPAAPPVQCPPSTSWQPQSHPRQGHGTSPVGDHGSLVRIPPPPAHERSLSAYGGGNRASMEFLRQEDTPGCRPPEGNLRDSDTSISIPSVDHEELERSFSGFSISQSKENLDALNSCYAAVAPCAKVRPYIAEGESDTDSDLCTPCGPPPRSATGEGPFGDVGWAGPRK
Description: as §1, §2

KCNA1 = KCNA1 (Homo sapiens, UniProt Q09470); experiment: Two-electrode voltage-clamp of KCNA1 in Xenopus oocytes; type: cell-based; settings: MTX concentration not given; IVA 500 µM
Chain of KCNA1 (Q09470 whole entry): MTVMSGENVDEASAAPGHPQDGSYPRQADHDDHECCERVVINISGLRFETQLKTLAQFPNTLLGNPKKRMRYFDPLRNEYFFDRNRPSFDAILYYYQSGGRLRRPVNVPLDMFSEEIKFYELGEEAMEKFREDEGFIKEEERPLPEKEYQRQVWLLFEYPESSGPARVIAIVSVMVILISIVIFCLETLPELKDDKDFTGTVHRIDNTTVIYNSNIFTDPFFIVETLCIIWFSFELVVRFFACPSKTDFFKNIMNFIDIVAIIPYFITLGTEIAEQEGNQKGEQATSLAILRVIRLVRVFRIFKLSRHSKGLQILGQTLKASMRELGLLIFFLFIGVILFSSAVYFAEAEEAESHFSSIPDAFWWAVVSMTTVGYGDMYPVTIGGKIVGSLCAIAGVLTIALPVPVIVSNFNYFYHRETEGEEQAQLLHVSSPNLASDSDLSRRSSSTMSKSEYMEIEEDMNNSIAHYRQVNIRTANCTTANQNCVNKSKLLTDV
Description: as §1
as §2, with “TEVC data analysis was performed with Clampfit10.2 (Molecular Devices) and Graphpad Prism software (GraphPad, San Diego, CA, USA); values are stated as mean ± SEM. Normalized tail currents were plotted versus prepulse voltage and fitted with a single Boltzmann function:1 g=A1-A2/1+expV12-Vy+A2, where g is the normalized tail conductance, A1 is the initial value at −∞, A2 is the final value at +∞, V1/2 is the half-maximal voltage of activation, and Vs the slope factor. Activation and deactivation kinetics were fitted with single-exponential functions.” left out

[2] = system: pentylene tetrazole-induced seizures; experiment: PTZ chemoconvulsant assay; type: in vivo, mouse; settings: mice
Description: We compared anticonvulsant activities of test compounds in male C57BL/6 mice (Charles River) aged 2–3 months. Mice were housed and used according to the recommendations in the Guide for the Care and Use of Laboratory Animals of the National Institutes of Health (NIH Publication, 8th edition, 2011). The study protocol was approved by the Institutional Animal Care and Use Committee of University of California, Irvine, which confirmed that all relevant ethical regulations were adhered to. Chemicals were sourced from Sigma (St. Louis, MO, USA) . A pentylene tetrazole (PTZ) chemoconvulsant assay was used[54]. […] Following the PTZ injection, mice were caged individually and an observer (GWA) blinded to the drug used recorded, over 20 min, clonic and tonic seizure incidence, and seizure-related mortality.
All values are expressed as mean ± SEM. Chi-squared analysis was used to compare seizure-related mortality in mice. One-way ANOVA was applied for all other tests; if multiple comparisons were performed, a post-hoc Tukey’s HSD test was performed following ANOVA. All p-values were two-sided. Statistical significance was defined as p < 0.05.

[3] = system: water-injected control oocytes; experiment: Two-electrode voltage-clamp of water-injected control oocytes; type: cell-based, Xenopus laevis
Description: Chemicals were sourced from Sigma.

KCNQ2/3 channels [4] = target: T1, KCNQ2/3 channels; experiment: Relative ion permeability of KCNQ2/3 channels (pseudo-bi-ionic substitution, GRb/GK); type: cell-based; settings: MTX 30 µM
Description: For relative permeability studies, currents were recorded in response to a single pulse to +40 mV for 5 s, followed by pulses between −80 mV and +40 mV at 20 mV intervals, from a holding potential of −80 mV, to yield a current–voltage relationship. According to the Goldman–Hodgkin–Katz (GHK) voltage equation:2 Erev=RT∕FlnPKK^+O+PNaNaO+PClCli/PKK^+i+PNaNai+PClClo, where Erev is the absolute reversal potential and P is the permeability. This permits calculation of the relative permeability of each ion if concentrations on either side of the membrane are known. A modified version of this equation was used here to determine relative permeability of two ions in a system in which only the extracellular ion concentration was known. Thus, relative permeability of Rb^+, Cs^+, and Na^+ compared to K^+ ions was calculated for all channels by plotting the I/V relationships for each channel with each extracellular ion (100 mM) and comparing them to that with 100 mM extracellular K^+ ion to yield a change in reversal potential (ΔErev) for each ion compared to that of K^+. Permeability ratios for each ion compared to K^+ were then calculated as3 ΔErev=Erev,X-Erev,K=RT/zFlnPX/PK
For calculating Rb^+/K^+ permeability (Fig. 3g), tail currents were elicited by a single pulse to +40 mV, followed by a pulse at −80 mV, from a holding potential of −80 mV in 98 mM [K^+] and then 98 mM [Rb^+]. […]

[5] = KCNQ2/3, 30 µM, Supplementary Table 10
[6] = KCNQ2/3, 30 µM, Supplementary Table 11
[7] = KCNQ2/3, 30 µM, dose series (Supplementary Table 5)

CC(=O)c1c(O)c(C)c(O)c(Cc2c(O)c3c(c(C(=O)/C=C/c4ccccc4)c2O)OC(C)(C)C=C3)c1O [MTX, mallotoxin]
resting membrane potential (EM) of unclamped oocytes expressing KCNQ2/3 (KCNQ2/3 channels [1]): dose-dependently hyperpolarizes | effects on KCNQ2/3 (KCNQ2/3 channels [1]; 1 µM alone): negligible effects | effect on voltage dependence of KCNQ2/3 activation (initial screen) (KCNQ2/3 channels [1]; 30 µM, tail currents at −30 mV): negative-shifted | KCNQ2/3 current increase at −60 mV (KCNQ2/3 channels [1]; 100 µM): seven-fold | effect on KCNQ2/3 at +40 mV (KCNQ2/3 channels [1]; +40 mV): little effect | EC50 (KCNQ2/3 channels [1]; EC50, KCNQ2/3, current at −60 mV, calculated from dose responses): 11.5 ± 0.2 µM | Non-normalized tail current V0.5 (KCNQ2/3 channels [1]; KCNQ2/3, 0.1 µM): -47.3 ± 2.4 mV | Normalized tail current V0.5 (KCNQ2/3 channels [1]; KCNQ2/3, 0.1 µM): -47.8 ± 0.5 mV | Slope (KCNQ2/3 channels [1]; KCNQ2/3, 0.1 µM): 7.5 ± 0.4 mV | τ act, -40 mV (KCNQ2/3 channels [1]; KCNQ2/3, 0.1 µM): 684 ± 55 ms | τ deact, -80 mV (KCNQ2/3 channels [1]; KCNQ2/3, 0.1 µM): 236 ± 12 ms | Non-normalized tail current V0.5 (KCNQ2/3 channels [1]; KCNQ2/3, 1 µM): -44.4 ± 4.9 mV | Normalized tail current V0.5 (KCNQ2/3 channels [1]; KCNQ2/3, 1 µM): -47.0 ± 0.9 mV | Slope (KCNQ2/3 channels [1]; KCNQ2/3, 1 µM): 7.4 ± 0.6 mV | τ act, -40 mV (KCNQ2/3 channels [1]; KCNQ2/3, 1 µM): 611 ± 46 ms | τ deact, -80 mV (KCNQ2/3 channels [1]; KCNQ2/3, 1 µM): 227 ± 20 ms | Non-normalized tail current V0.5 (KCNQ2/3 channels [1]; KCNQ2/3, 3 µM): -47.3 ± 5.0 mV | Normalized tail current V0.5 (KCNQ2/3 channels [1]; KCNQ2/3, 3 µM): -50.7 ± 1.0 mV | Slope (KCNQ2/3 channels [1]; KCNQ2/3, 3 µM): 7.9 ± 0.8 mV | τ act, -40 mV (KCNQ2/3 channels [1]; KCNQ2/3, 3 µM): 530 ± 37 ms | τ deact, -80 mV (KCNQ2/3 channels [1]; KCNQ2/3, 3 µM): 259 ± 12 ms | Non-normalized tail current V0.5 (KCNQ2/3 channels [1]; KCNQ2/3, 10 µM): -51.9 ± 4.8 mV | Normalized tail current V0.5 (KCNQ2/3 channels [1]; KCNQ2/3, 10 µM): -56.2 ± 1.3 mV | Slope (KCNQ2/3 channels [1]; KCNQ2/3, 10 µM): 6.8 ± 1.3 mV | τ act, -40 mV (KCNQ2/3 channels [1]; KCNQ2/3, 10 µM): 462 ± 34 ms | τ deact, -80 mV (KCNQ2/3 channels [1]; KCNQ2/3, 10 µM): 261 ± 7 ms | Non-normalized tail current V0.5 (KCNQ2/3 channels [1]; KCNQ2/3, 30 µM): -54.9 ± 4.9 mV | Normalized tail current V0.5 (KCNQ2/3 channels [1]; KCNQ2/3, 30 µM): -60.0 ± 1.8 mV | Slope (KCNQ2/3 channels [1]; KCNQ2/3, 30 µM): 8.0 ± 1.8 mV | τ act, -20 mV (KCNQ2/3 channels [1]; [5]): 205 ± 6 ms | τ act, -40 mV (KCNQ2/3 channels [1]; [5]): 397 ± 26 ms | τ act, -60 mV (KCNQ2/3 channels [1]; [5]): 835 ± 51 ms | τ deact, -80 mV (KCNQ2/3 channels [1]; [6]): 143 ± 39 ms | τ deact, -90 mV (KCNQ2/3 channels [1]; [6]): 105 ± 4.2 ms | τ deact, -100 mV (KCNQ2/3 channels [1]; [6]): 77 ± 6.2 ms | τ deact, -110 mV (KCNQ2/3 channels [1]; [6]): 53 ± 3.5 ms | τ deact, -120 mV (KCNQ2/3 channels [1]; [6]): 36 ± 1.2 ms | τ act, -40 mV (KCNQ2/3 channels [1]; [7]): 403 ± 33 ms | τ deact, -80 mV (KCNQ2/3 channels [1]; [7]): 259 ± 18 ms | Non-normalized tail current V0.5 (KCNQ2/3 channels [1]; KCNQ2/3, 100 µM): -56.6 ± 3.8 mV | Normalized tail current V0.5 (KCNQ2/3 channels [1]; KCNQ2/3, 100 µM): -57.1 ± 0.6 mV | Slope (KCNQ2/3 channels [1]; KCNQ2/3, 100 µM): 7.2 ± 0.5 mV | τ act, -40 mV (KCNQ2/3 channels [1]; KCNQ2/3, 100 µM): 403 ± 34 ms | τ deact, -80 mV (KCNQ2/3 channels [1]; KCNQ2/3, 100 µM): 415 ± 87 ms | shift in midpoint voltage dependence (V0.5) of activation (KCNQ2/3 channels [1]; KCNQ2/3, MTX 30 µM): −17 mV | EC50 (KCNQ2/3 channels [1]; V0.5 EC50, KCNQ2/3, calculated from shift in V0.5): 4 ± 0.2 µM | KCNQ2/3 current increase at −60 mV (KCNQ2/3 channels [1]; either component alone (MTX 30 µM; IVA 500 µM)): ~ fivefold | time to plateau of KCNQ2/3 activation after wash-in (KCNQ2/3 channels [1]; −60 mV current): 5 min | EC50 (W236L-Q2/Q3 channels; EC50, W236L-Q2/Q3, calculated from dose responses): 27 ± 0.6 µM | EC50 (W236L-Q2/Q3 channels; V0.5 EC50, W236L-Q2/Q3, calculated from shift in V0.5): 37.3 ± 0.2 µM | Non-normalized tail current V0.5 (W236L-Q2/Q3 channels; 1 µM): -55.7 ± 1.9 mV | Normalized tail current V0.5 (W236L-Q2/Q3 channels; 1 µM): -57.1 ± 0.9 mV | Slope (W236L-Q2/Q3 channels; 1 µM): 6.0 ± 0.7 mV | Non-normalized tail current V0.5 (W236L-Q2/Q3 channels; 3 µM): -55.4 ± 2.1 mV | Normalized tail current V0.5 (W236L-Q2/Q3 channels; 3 µM): -57.8 ± 1.3 mV | Slope (W236L-Q2/Q3 channels; 3 µM): 3.9 ± 2.2 mV | Non-normalized tail current V0.5 (W236L-Q2/Q3 channels; 10 µM): -57.3 ± 2.7 mV | Normalized tail current V0.5 (W236L-Q2/Q3 channels; 10 µM): -58.1 ± 0.9 mV | Slope (W236L-Q2/Q3 channels; 10 µM): 6.2 ± 0.7 mV | Non-normalized tail current V0.5 (W236L-Q2/Q3 channels; 30 µM): -61.9 ± 3.9 mV | Normalized tail current V0.5 (W236L-Q2/Q3 channels; 30 µM): -62.4 ± 1.3 mV | Slope (W236L-Q2/Q3 channels; 30 µM): 6.6 ± 0.9 mV | Non-normalized tail current V0.5 (W236L-Q2/Q3 channels; 100 µM): -67.9 ± 7.7 mV | Normalized tail current V0.5 (W236L-Q2/Q3 channels; 100 µM): -71.4 ± 4.5 mV | Slope (W236L-Q2/Q3 channels; 100 µM): 6.8 ± 1.2 mV | effect on KCNA1 currents (KCNA1): no effect | clonic seizure incidence ([2]; 10 mg/kg i.p. alone): neither compound reduced clonic seizures alone | clonic seizure incidence ([2]; 20 mg/kg i.p., 30 min before 80 mg kg−1 PTZ): halved | suppression of PTZ-induced tonic seizures ([2]; individually): ineffective | effect on endogenous current and EM of water-injected control oocytes [3]: no effect | GRb/GK (ratio of Rb+ conductance to K+ conductance) (KCNQ2/3 channels [4]; KCNQ2/3, baseline 0.75 ± 0.10): 0.52 ± 0.06 | relative ion permeability of KCNQ2/3 compared to K+ (KCNQ2/3 channels [4]; 100 mM extracellular ion): increased relative permeability of KCNQ2/3 to Na^+ and Cs^+, and decreased permeability to Rb^+
